What was measured:
[1] = test system: AGS (gastric) cells; test: Long term colony assay; format: cell-based
Description: (§1) Compound 1 was assessed for its ability to inhibit the colony formation of cancer cells via a long-term colony forming assay. Cells and compounds were added to 96-well plates and were monitored for up to 8 weeks for the formation of colonies. Compound and media were replenished every 1 week throughout the course of the assay. Colony formation was detected via imaging at 4× on the IncuCyte ZOOM System. […] (FIG. 23A-23D).

[2] = test system: Hep3B (HCC) cells; test: Long term colony assay; format: cell-based; settings: up to 8 weeks
Description: as §1

[3] = test system: SW48 (colo) cells; test: Long term colony assay; format: cell-based; settings: up to 8 weeks
Description: as §1

[4] = test system: HCT-116 (colo) cells; test: Long term colony assay; format: cell-based; settings: up to 8 weeks
Description: as §1

[5] = test system: HLE; test: Apoptosis, Caspase 3/7-Glo; format: cell-based; settings: lowest concentration inducing 2-fold increase of cleaved caspase 3/7 vs DMSO
Description: (§2) Prior to testing, cells were grown and expanded in culture flasks to provide sufficient amounts of starting material. Cells were then diluted to the appropriate densities and added directly to the compound-spotted 384-well plates. Cells were allowed to grow for 72 h at 37° C./5% CO2. At the time when compound was added (t0), initial cell number was assessed via a viability assay (Cell Titer-Glo) by quantifying the level of luminescence generated by ATP present in viable cells. After 72 h, cell viability of compound-treated cells was assessed via Cell Titer-Glo and luminescence measurement. The apoptotic response to Compound 1 was assessed by quantifying the activities of caspase 3 and caspase 7 (Caspase 3/7-Glo) in treated cells and DMSO control cells.
(§3) Proliferation and apoptosis were measured using CellTiter-Glo and Caspase 3/7-Glo. CalX2 values are the lowest concentration at which Compound 1 induces a 2-fold increase of cleaved caspase 3/7 compared to DMSO control. Proliferation and apoptosis data is the average of 3 experiments.

[6] = test system: HLF; test: Apoptosis, Caspase 3/7-Glo; format: cell-based; settings: lowest concentration inducing 2-fold increase of cleaved caspase 3/7 vs DMSO
Description: as §2, §3

[7] = test system: HuCCT1; test: Apoptosis, Caspase 3/7-Glo; format: cell-based; settings: lowest concentration inducing 2-fold increase of cleaved caspase 3/7 vs DMSO
Description: as §2, §3

[8] = test system: JHH-6; test: Apoptosis, Caspase 3/7-Glo; format: cell-based; settings: lowest concentration inducing 2-fold increase of cleaved caspase 3/7 vs DMSO
Description: as §2, §3

[9] = test system: HepG2/C3A; test: Apoptosis, Caspase 3/7-Glo; format: cell-based; settings: lowest concentration inducing 2-fold increase of cleaved caspase 3/7 vs DMSO
Description: as §2, §3

[10] = test system: JHH-1; test: Apoptosis, Caspase 3/7-Glo; format: cell-based; settings: lowest concentration inducing 2-fold increase of cleaved caspase 3/7 vs DMSO
Description: as §2, §3

[11] = test system: SNU-398; test: Apoptosis, Caspase 3/7-Glo; format: cell-based; settings: lowest concentration inducing 2-fold increase of cleaved caspase 3/7 vs DMSO
Description: as §2, §3

[12] = test system: HuH-6-Clone5; test: Apoptosis, Caspase 3/7-Glo; format: cell-based; settings: lowest concentration inducing 2-fold increase of cleaved caspase 3/7 vs DMSO
Description: as §2, §3

[13] = test system: SNU-475; test: Apoptosis, Caspase 3/7-Glo; format: cell-based; settings: lowest concentration inducing 2-fold increase of cleaved caspase 3/7 vs DMSO
Description: as §2, §3

[14] = test system: SNU-387; test: Apoptosis, Caspase 3/7-Glo; format: cell-based; settings: lowest concentration inducing 2-fold increase of cleaved caspase 3/7 vs DMSO
Description: as §2, §3

[15] = test system: Hep3B; test: Apoptosis, Caspase 3/7-Glo; format: cell-based
Description: as §2, §3

[16] = test system: SK-HEP-1; test: Apoptosis, Caspase 3/7-Glo; format: cell-based; settings: lowest concentration inducing 2-fold increase of cleaved caspase 3/7 vs DMSO
Description: as §2, §3

[17] = test system: HepG2; test: Apoptosis, Caspase 3/7-Glo; format: cell-based; settings: lowest concentration inducing 2-fold increase of cleaved caspase 3/7 vs DMSO
Description: as §2, §3

[18] = test system: FOCUS; test: Apoptosis, Caspase 3/7-Glo; format: cell-based; settings: lowest concentration inducing 2-fold increase of cleaved caspase 3/7 vs DMSO
Description: as §2, §3

[19] = test system: JHH-4; test: Apoptosis, Caspase 3/7-Glo; format: cell-based; settings: lowest concentration inducing 2-fold increase of cleaved caspase 3/7 vs DMSO
Description: as §2, §3

[20] = test system: SNU-182; test: Apoptosis, Caspase 3/7-Glo; format: cell-based; settings: lowest concentration inducing 2-fold increase of cleaved caspase 3/7 vs DMSO
Description: as §2, §3

[21] = test system: JHH-5; test: Apoptosis, Caspase 3/7-Glo; format: cell-based; settings: lowest concentration inducing 2-fold increase of cleaved caspase 3/7 vs DMSO
Description: as §2, §3

[22] = test system: HuH-1; test: Apoptosis, Caspase 3/7-Glo; format: cell-based; settings: lowest concentration inducing 2-fold increase of cleaved caspase 3/7 vs DMSO
Description: as §2, §3

[23] = test system: SNU-423; test: Apoptosis, Caspase 3/7-Glo; format: cell-based; settings: lowest concentration inducing 2-fold increase of cleaved caspase 3/7 vs DMSO
Description: as §2, §3

[24] = test system: SNU-449; test: Apoptosis, Caspase 3/7-Glo; format: cell-based; settings: lowest concentration inducing 2-fold increase of cleaved caspase 3/7 vs DMSO
Description: as §2, §3

[25] = test system: JHH-7; test: Apoptosis, Caspase 3/7-Glo; format: cell-based; settings: lowest concentration inducing 2-fold increase of cleaved caspase 3/7 vs DMSO
Description: as §2, §3

[26] = test system: JHH-2; test: Apoptosis, Caspase 3/7-Glo; format: cell-based; settings: lowest concentration inducing 2-fold increase of cleaved caspase 3/7 vs DMSO
Description: as §2, §3

[27] = test system: HuH-7; test: Apoptosis, Caspase 3/7-Glo; format: cell-based; settings: lowest concentration inducing 2-fold increase of cleaved caspase 3/7 vs DMSO
Description: as §2, §3

[28] = test system: PLC-PRF-5; test: Apoptosis, Caspase 3/7-Glo; format: cell-based; settings: lowest concentration inducing 2-fold increase of cleaved caspase 3/7 vs DMSO
Description: as §2, §3

[29] = test system: PDX146 tumor; test: PDX1994060146 (PDX146) subcutaneous colorectal patient-derived xenograft model; format: in vivo, NSG mice; settings: for Tumor growth delay (TGD): TTP study
Description: A time to progression (TTP) study was performed to determine the effect of longer treatment duration on tumor growth.
In the first experiment Compound 1 was administered orally, QD at 1, 5, and 15 mg/kg or 5 and 15 mg/kg BID for 22 days.
In the TTP study, Compound 1 was administered orally, 1, 5, and 15 mg/kg BID for 49-77 days. Compound 1 treatment groups were dosed throughout the duration of the study until the group mean reached the predetermined endpoint of approximately 1200 mm^3 or study termination. Tumor growth delay (TGD) was calculated as the time between the termination of the vehicle control group (on day 43) and the Compound 1 treatment groups. The TGD was 8, 12 and >37 days for the 1, 5 and 15 mg/kg treatment groups, respectively. (FIG. 11)

[30] = test system: PD-L1; test: PD-L1 expression, Western blot, HOP62; format: cell-based
Description: The effect of Compound 1 was evaluated on PD-L1 expression levels. Cells were cultured in presence or absence of Compound 1 for indicated time before expression levels of PD-L1, DUSP4 and α-tubulin or α-actin were measured by Western blot. To detect surface levels of PD-L1, cells were treated with DMSO or Compound 1 at indicated concentrations for 48 h and cell surface expression of PD-L1 was detected using flow cytometry analysis (FACS) with an APC-labeled antibody to PD-L1 (clone 29E.1A3; BioLegend, San Diego, Calif.). Geometric mean of PD-L1 positive cells was determined by FlowJo 10 (Treestar, Ashland, Oreg.).

[31] = target: SIK; test: Known kinases inhibited (no method given); format: biochemical
[32] = target: ERK 1/2; test: Known kinases inhibited (no method given); format: biochemical

SMILES: C[C@]1(C(N)=O)CC[C@@H](n2c(Nc3c(Cl)cc(Cl)cc3Cl)nc3cnc(N[C@@H]4CCOC[C@H]4F)nc32)CC1 [Compound 1, cis-4-[2-{[(3S,4R)-3-fluorooxan-4-yl]amino}-8-(2,4,6-trichloroanilino)-9H-purin-9-yl]-1-methyl cyclohexane-1-carboxamide]
- Colony formation of AGS cells resistant to trametinib ([1]; AGS cells resistant to MEK inhibitor trametinib): inhibit colony formation
- Inhibition of colony formation vs MEK inhibitors (trametinib) and ERK inhibitors (GDC0994) ([1]; AGS, up to 8 weeks): greater levels of inhibition than seen with treatment with MEK inhibitors or ERK inhibitors
- Inhibition of colony formation vs MEK inhibitors (trametinib) and ERK inhibitors (GDC0994) [2]: greater levels of inhibition than seen with treatment with MEK inhibitors or ERK inhibitors
- Inhibition of colony formation vs MEK inhibitors (trametinib) and ERK inhibitors (GDC0994) [3]: greater levels of inhibition than seen with treatment with MEK inhibitors or ERK inhibitors
- Inhibition of colony formation vs MEK inhibitors (trametinib) and ERK inhibitors (GDC0994) [4]: greater levels of inhibition than seen with treatment with MEK inhibitors or ERK inhibitors
- Cal_X2 [5]: 10.0000
- Cal_X2 [6]: 7.2156
- Cal_X2 [7]: 0.0213
- Cal_X2 [8]: 10.0000
- Cal_X2 [9]: 0.8273
- Cal_X2 [10]: 0.0427
- Cal_X2 [11]: 0.0378
- Cal_X2 [12]: 1.5813
- Cal_X2 [13]: 10.0000
- Cal_X2 [14]: 0.0046
- Apoptosis induction CalX2 ([15]; HCC, β-catenin Active): 0.002 ± 0.002 µM
- Cal_X2 ([15]; lowest concentration inducing 2-fold increase of cleaved caspase 3/7 vs DMSO): 0.0028
- Cal_X2 [16]: 10.0000
- Cal_X2 [17]: 0.0129
- Cal_X2 [18]: 3.8562
- Cal_X2 [19]: 0.0588
- Cal_X2 [20]: 5.2385
- Cal_X2 [21]: 0.0139
- Cal_X2 [22]: 6.5641
- Cal_X2 [23]: 10.0000
- Cal_X2 [24]: 10.0000
- Cal_X2 [25]: 4.7601
- Cal_X2 [26]: 0.2806
- Cal_X2 [27]: 0.0118
- Cal_X2 [28]: 3.8310
- Tumor growth delay (TGD) ([29]; 1 mg/kg BID orally): 8 days
- Tumor growth delay (TGD) ([29]; 5 mg/kg BID orally): 12 days
- Tumor growth delay (TGD) ([29]; 15 mg/kg BID orally): > 37 days
- Antitumor activity, 15 mg/kg BID compared to 15 mg/kg QD ([29]; 22 days): appeared to increase the antitumor activity
- Antitumor activity ([29]; orally, QD at 1, 5, and 15 mg/kg or 5 and 15 mg/kg BID for 22 days): Dose-dependent antitumor activity
- PD-L1 expression [30]: directly inhibits PD-L1 expression
- Kinase inhibition [31]: inhibited
- Kinase inhibition [32]: inhibited

From patent US10576085B2, “Substituted aminopurine compounds, compositions thereof, and methods of treatment therewith” (Signal Pharmaceuticals, LLC, priority 2016, dated 2020)
